Results from ChEMBL document CHEMBL1833875, “Synthesis and in vitro antiprotozoal activities of 5-phenyliminobenzo[a]phenoxazine derivatives” (Bioorg Med Chem Lett, 2011).

What was measured:
[1] = Selectivity index, ratio of IC50 for rat L6 cells to IC50 for Leishmania donovani MHOM/ET/67/L82; type: toxicity, cell-based; settings: read-out: Ratio IC50
Plasmodium falciparum = experiment: Antimalarial activity against Plasmodium falciparum K1 at pH 7.4 by microplate assay; type: functional, organism-based
L6 = experiment: Cytotoxicity against rat L6 cells; type: cell-based
Trypanosoma cruzi = experiment: Antiprotozoal activity against Trypanosoma cruzi Tulahuen C4 at pH 7.4 by microplate assay; type: functional, organism-based
[2] = Selectivity index, ratio of IC50 for rat L6 cells to IC50 for Plasmodium falciparum K1; type: toxicity, cell-based; settings: read-out: Ratio IC50
[3] = Selectivity index, ratio of IC50 for rat L6 cells to IC50 for Trypanosoma brucei rhodesiense STIB900; type: toxicity, cell-based; settings: read-out: Ratio IC50
[4] = tested on: Trypanosoma brucei rhodesiense; experiment: Antiprotozoal activity against Trypanosoma brucei rhodesiense STIB900 at pH 7.4 by microplate assay; type: functional, organism-based
Leishmania donovani = experiment: Antiprotozoal activity against Leishmania donovani MHOM/ET/67/L82 at pH 7.4 by microplate assay; type: functional, organism-based
[5] = Selectivity index, ratio of IC50 for rat L6 cells to IC50 for Trypanosoma cruzi Tulahuen C4; type: toxicity, cell-based; settings: read-out: Ratio IC50

IC50 (Plasmodium falciparum) [µM] | IC50 (Trypanosoma cruzi) [µM] | IC50 [4] [µM] | IC50 (Leishmania donovani) [µM] | SMILES | selectivity ratio [1] | IC50 (L6) [µM] | selectivity ratio [2] | selectivity ratio [3] | selectivity ratio [5]
0.04 | 20.3 | 14.9 | 5.2 | CCN(CC)c1ccc2nc3c4ccccc4/c(=N\c4ccc(OC)cc4)cc-3oc2c1 | 10.9 | 57.2 | 1420 | 3.84 | 2.82
 | 0.886 |  |  | O=C(Cn1ccnc1[N+](=O)[O-])NCc1ccccc1 [BENZNIDAZOLE] |  |  |  |  | 
0.209 | 76.7 | 129 | 28.6 | CCN(CC)c1ccc2nc3c4ccccc4/c(=N\c4cccc(Cl)c4)cc-3oc2c1 | 4.5 | 129 | 617 | 1 | 1.68
0.253 | 20.9 | 36.2 | 10.7 | CCN(CC)c1ccc2nc3c4ccccc4/c(=N\c4ccc(C)cc4)cc-3oc2c1 | 12.5 | 134 | 531 | 3.71 | 6.42
0.205 | 144 | 147 | 90.6 | CCN(CC)c1ccc2nc3c4ccccc4/c(=N\c4ccc([N+](=O)[O-])cc4C#N)cc-3oc2c1 | 0.68 | 61.8 | 302 | 0.42 | 0.43
0.135 | 56.9 | 198 | > 205 | CCN(CC)c1ccc2nc3c4ccccc4/c(=N\c4ccc([N+](=O)[O-])cc4)cc-3oc2c1 | < 0.25 | 51.9 | 386 | 0.26 | 0.91
0.208 | > 229 | 88.5 | 20.1 | CCN(CC)c1ccc2nc3c4ccccc4/c(=N\c4ccccc4)cc-3oc2c1 | 8.94 | 180 | 863 | 2.03 | < 0.79
0.215 | 78.8 | 85.4 | 23.3 | CCN(CC)c1ccc2nc3c4ccccc4/c(=N\c4ccccc4Cl)cc-3oc2c1 | 2.41 | 56.2 | 261 | 0.66 | 0.71
1.93 | 10.9 | 184 | 70.5 | CCN(CC)c1ccc2nc3c4ccccc4/c(=N\c4ccc([N+](=O)[O-])cc4Cl)cc-3oc2c1 | 0.21 | 14.6 | 8 | 0.08 | 1.34
0.045 | 143 | 11.3 | 2.9 | CCN(CC)c1ccc2nc3c4ccccc4/c(=N\c4cccc(OC)c4)cc-3oc2c1 | 13.9 | 39.6 | 883 | 3.52 | 0.28
